{
  "source": "patent US6368788B1",
  "about": "(priority 1987, dated 2002)",
  "key": {"M. bovis": {"system": "M. bovis", "type": "in vivo, mice", "conditions": "Group 8; INH 5 mg/kg sc daily"}, "YAC-1 target cells": {"system": "YAC-1 target cells", "assay": "NK cytotoxic activity of splenocytes on YAC-1 target cells", "type": "in vivo, C3H/HeJ mice", "conditions": "for Cytotoxicity Change (%): vs saline"}, "Rauscher MuLV": {"system": "Rauscher MuLV", "assay": "Anti-viral response to Rauscher MuLV", "type": "in vivo, mice", "conditions": "days −2, −1, 0, +1, and +2; for Viremia: ± SEM", "text": "Innate mechanisms of anti-viral immunity are important to survival of the host. The Rauscher murine leukemia virus (MuLV) is an example of a highly virulent animal retrovirus infection, first isolated and characterized by Dr. Rauscher from BALB/c mouse tissues in 1962. […] The virus employed in present GLP/blinded study was a murine leukemia complex known to induce progressive erythroleukemia in mice (i.e., Rauscher MuLV and replication-defective Rauscher spleen focus-forming virus). Disease manifested within about 6 days with death by about 50 days. Measurements of splenomegaly, blood reverse transcriptase, virus plaque assays (i.e., XC-plaque assay for viremia using SC-1 host cells) and serum anti-viral antibody titers were used to assess infection. Spleens achieved about 2.0 grams in weight within 21 days of infection, as compared with a normal spleen weights in an uninfected animals of about 0.1 gram.\nMice were inoculated with Rauscher MuLV complex (0.1 ml/7.8×10^4 PFU/mL) on day 0 and sacrificed on day 21. Test groups were comprised of 10 mice and control groups 6 mice. Control articles included saline and AZT (in drinking water at about 1.25 mg/mouse/day≈63 mg/kg/day/mouse). […] A non-infected group of mice was also sacrificed on day 21 to provide normal control values.\nIn EXAMPLE 38, SC-1 cells were originally derived from murine embryos, and XC cells (a rat tumor cell line induced by Rous Sarcoma Virus) were obtained from the ATCC in Rockville, Md."}, "[1]": {"assay": "Survival in LPS-induced endotoxic shock", "type": "in vivo, CBA mice", "experimental": "The mortality results were evaluated using the Litchfield-Wilcoxon's probit analysis method and a computer program written to conduct probit analyses."}},
  "note": "Marks after values point to notes of the source that are not given here.",
  "data": [
    {"compound": "NNC(=O)c1ccncc1", "note": "[Isoniazid, reference compound]", "values": [
      {"measurement": "Survival Mean", "setting": "M. bovis", "result": "57 ± 2"}
    ]},
    {"compound": "Glu-Trp", "values": [
      {"measurement": "% Cytotoxicity (mean +/− S.D.)", "setting": "YAC-1 target cells; dose 1 (μg/kg ip daily 7 days)", "result": "10.7 ± 14", "unit": "%"},
      {"measurement": "Cytotoxicity Change (%)", "setting": "YAC-1 target cells; dose 1", "result": "25 ↑ %"},
      {"measurement": "% Cytotoxicity (mean +/− S.D.)", "setting": "YAC-1 target cells; dose 10 (μg/kg ip daily 7 days)", "result": "14.3 ± 1.7", "unit": "%"},
      {"measurement": "Cytotoxicity Change (%)", "setting": "YAC-1 target cells; dose 10", "result": "67 ↑ %"},
      {"measurement": "% Cytotoxicity (mean +/− S.D.)", "setting": "YAC-1 target cells; dose 1000 (μg/kg ip daily 7 days)", "result": "14.9 ± 2.9", "unit": "%"},
      {"measurement": "Cytotoxicity Change (%)", "setting": "YAC-1 target cells; dose 1000", "result": "75* ↑ %"},
      {"measurement": "Reduction Splenomegaly (%)", "setting": "Rauscher MuLV; 0.002 mg/kg", "result": "−9", "unit": "%"},
      {"measurement": "Spleen Weight (mean ± SD)", "setting": "Rauscher MuLV; 0.002 mg/kg", "result": "0.49 ± 0.31"},
      {"measurement": "Reduction Splenomegaly (%)", "setting": "Rauscher MuLV; 0.005 mg/kg", "result": "−3", "unit": "%"},
      {"measurement": "Spleen Weight (mean ± SD)", "setting": "Rauscher MuLV; 0.005 mg/kg", "result": "0.47 ± 0.29"},
      {"measurement": "Viremia", "setting": "Rauscher MuLV; 0.005 mg/kg", "result": "3.25 ± 0.27", "unit": "log10PFU/ml"},
      {"measurement": "Reduction Splenomegaly (%)", "setting": "Rauscher MuLV; 0.02 mg/kg", "result": 12, "unit": "%"},
      {"measurement": "Spleen Weight (mean ± SD)", "setting": "Rauscher MuLV; 0.02 mg/kg", "result": "0.42 ± 0.32"},
      {"measurement": "Reduction Splenomegaly (%)", "setting": "Rauscher MuLV; 0.05 mg/kg", "result": 30, "unit": "%"},
      {"measurement": "Spleen Weight (mean ± SD)", "setting": "Rauscher MuLV; 0.05 mg/kg", "result": "0.36 ± 0.11"},
      {"measurement": "Viremia", "setting": "Rauscher MuLV; 0.05 mg/kg", "result": "2.99 ± 0.28", "unit": "log10PFU/ml"},
      {"measurement": "Reduction Splenomegaly (%)", "setting": "Rauscher MuLV; 0.17 mg/kg", "result": 12, "unit": "%"},
      {"measurement": "Spleen Weight (mean ± SD)", "setting": "Rauscher MuLV; 0.17 mg/kg", "result": "0.42 ± 0.26"},
      {"measurement": "Reduction Splenomegaly (%)", "setting": "Rauscher MuLV; 0.5 mg/kg", "result": "−12", "unit": "%"},
      {"measurement": "Spleen Weight (mean ± SD)", "setting": "Rauscher MuLV; 0.5 mg/kg", "result": "0.48 ± 0.3"},
      {"measurement": "Viremia", "setting": "Rauscher MuLV; 0.5 mg/kg", "result": "3.31 ± 0.39", "unit": "log10PFU/ml"},
      {"measurement": "Reduction Splenomegaly (%)", "setting": "Rauscher MuLV; 1.75 mg/kg", "result": 3, "unit": "%"},
      {"measurement": "Spleen Weight (mean ± SD)", "setting": "Rauscher MuLV; 1.75 mg/kg", "result": "0.45 ± 0.39"},
      {"measurement": "Reduction Splenomegaly (%)", "setting": "Rauscher MuLV; 5 mg/kg", "result": 6, "unit": "%"},
      {"measurement": "Spleen Weight (mean ± SD)", "setting": "Rauscher MuLV; 5 mg/kg", "result": "0.44 ± 0.15"},
      {"measurement": "Viremia", "setting": "Rauscher MuLV; 5 mg/kg", "result": "3.43 ± 0.368", "unit": "log10PFU/ml"},
      {"measurement": "Survivors (%)", "setting": "[1]; 24 hrs after LD99 LPS ip, 10 μg/kg ip daily x3 prophylactic", "result": 36, "unit": "%"},
      {"measurement": "Survivors", "setting": "[1]; 24 hrs after LD99 LPS ip, 10 μg/kg ip daily x3 prophylactic, 11 animals", "result": 4},
      {"measurement": "Survivors (%)", "setting": "[1]; 24 hrs after LD99 LPS ip, 100 μg/kg ip daily x3 prophylactic", "result": "80* %"},
      {"measurement": "Survivors", "setting": "[1]; 24 hrs after LD99 LPS ip, 100 μg/kg ip daily x3 prophylactic, 10 animals", "result": 8},
      {"measurement": "Survivors (%)", "setting": "[1]; 30 hrs after LD99 LPS ip, 10 μg/kg ip daily x3 prophylactic", "result": 9, "unit": "%"},
      {"measurement": "Survivors", "setting": "[1]; 30 hrs after LD99 LPS ip, 10 μg/kg ip daily x3 prophylactic, 11 animals", "result": 1},
      {"measurement": "Survivors (%)", "setting": "[1]; 30 hrs after LD99 LPS ip, 100 μg/kg ip daily x3 prophylactic", "result": "40* %"},
      {"measurement": "Survivors", "setting": "[1]; 30 hrs after LD99 LPS ip, 100 μg/kg ip daily x3 prophylactic, 10 animals", "result": 4}
    ]}
  ]
}
